From the supplement of paper PMC10307832

What was measured:
Assay in all cases: relative viability (nuclei count vs DMSO), 5 days (fraction); higher = more cells survive
[1] = compound: CN1CCN(CC1)C2=CC(=C(C=C2)NC3=NC=C4C(=N3)N(C5=CC=CC=C5C(=O)N4C)C)OC [XMD8-85] + COc1cccc2cc(-c3nc([C@H]4CC[C@H](C(=O)O)CC4)n4ncnc(N)c34)[nH]c12 [OSI-027] (partner 0.5 µM)
How it was run: (§1)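 Relative viability was taken as the ratio of nuclei in treated wells to nuclei in vehicle wells. Lung cancer cell lines in 1536-well plates received compounds by pin tool one day after seeding, either one drug alone or a fixed anchor-drug dose plus five library-drug doses (not always all listed) in √10 steps. Nuclei were counted on 4× images after 5 days of treatment, and values are medians of duplicate plates.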

[2] = compound: CN1CCN(CC1)C2=CC(=C(C=C2)NC3=NC=C4C(=N3)N(C5=CC=CC=C5C(=O)N4C)C)OC [XMD8-85] + Cc1cc(Nc2cc(N3CCN(C)CC3)nc(Sc3ccc(NC(=O)C4CC4)cc3)n2)n[nH]1 [Tozasertib] (partner 0.1 µM)
How it was run: as §1

[3] = compound: CN1CCN(CC1)C2=CC(=C(C=C2)NC3=NC=C4C(=N3)N(C5=CC=CC=C5C(=O)N4C)C)OC [XMD8-85] + NC(=O)Nc1cc(-c2cccc(F)c2)sc1C(=O)N[C@H]1CCCNC1 [AZD7762] (partner 0.2 µM)
How it was run: as §1

[4] = compound: O=C(O)C(Cc1ccccc1[N+](=O)[O-])=NNc1nc(-c2ccc(Cl)c(Cl)c2)cs1 (mixture of isomers) [4EGI-1] + Cc1nc(NC(=O)N2CCC[C@H]2C(N)=O)sc1-c1ccnc(C(C)(C)C(F)(F)F)c1 [Alpelisib] (partner 2 µM)
How it was run: as §1

Cell Line | relative viability ([1]; first compound 0.08 µM) | relative viability ([1]; first compound 0.253 µM) | relative viability ([1]; first compound 0.8 µM) | relative viability ([1]; first compound 2.53 µM) | relative viability ([1]; first compound 8 µM) | relative viability ([2]; first compound 0.08 µM) | relative viability ([2]; first compound 0.253 µM) | relative viability ([2]; first compound 0.8 µM) | relative viability ([2]; first compound 2.53 µM) | relative viability ([2]; first compound 8 µM) | relative viability ([3]; first compound 0.08 µM) | relative viability ([3]; first compound 0.253 µM) | relative viability ([3]; first compound 0.8 µM) | relative viability ([3]; first compound 2.53 µM) | relative viability ([3]; first compound 8 µM) | relative viability ([4]; first compound 0.5 µM) | relative viability ([4]; first compound 5 µM) | relative viability ([4]; first compound 15.81 µM) | relative viability ([4]; first compound 50 µM) | relative viability ([4]; first compound 1.581 µM)
NCI-H1395 | 0.754 | 0.64 | 0.667 | 0.664 | 0.489 | 0.768 | 0.786 | 0.716 | 0.693 | 0.571 | 0.382 | 0.393 | 0.395 | 0.418 | 0.35 | 1.19 | 1.52 | 1.07 | 0.685 | –
NCI-H460 | 0.557 | 0.626 | 0.901 | 0.731 | 0.239 | 0.445 | 0.339 | 0.445 | 0.329 | 0.0548 | 0.624 | 0.643 | 0.69 | 0.659 | 0.432 | 0.511 | 0.493 | 0.197 | 0.0546 | –
HOP-62 | 0.806 | 0.867 | 0.842 | 0.845 | 0.436 | 0.371 | 0.342 | 0.403 | 0.301 | 0.177 | 0.497 | 0.708 | 0.523 | – | 0.421 | 1.13 | 1.12 | 1.13 | 0.745 | –
LC-2-ad | 0.745 | 0.859 | 0.794 | 0.779 | 0.613 | 0.411 | 0.429 | 0.47 | 0.33 | 0.34 | 0.808 | 0.837 | 0.895 | 0.779 | 0.596 | 0.865 | 0.858 | 0.822 | 0.137 | 0.758
EKVX | 0.746 | 0.872 | 0.661 | 0.73 | – | 0.404 | 0.34 | 0.41 | 0.427 | 0.276 | 0.685 | 0.742 | 0.67 | 0.729 | 0.646 | 1.12 | 0.971 | 0.648 | 0.826 | 0.85
LCLC-103H | 0.428 | 0.441 | 0.487 | – | 0.404 | 0.451 | 0.449 | 0.581 | 0.45 | 0.383 | 0.769 | 0.825 | 0.811 | 0.851 | 0.781 | 1.01 | 0.866 | 0.879 | 0.879 | 0.866
NCI-H1651 | 0.752 | 0.695 | 0.676 | 0.647 | 0.638 | 0.717 | 0.818 | 0.68 | 0.436 | 0.307 | 0.46 | 0.431 | 0.47 | – | 0.433 | 0.927 | 0.913 | 0.906 | 0.556 | 0.914
NCI-H2405 | 0.6 | 0.645 | 0.604 | 0.598 | 0.631 | 0.705 | 0.749 | 0.742 | 0.694 | 0.485 | 0.636 | 0.741 | 0.73 | 0.708 | 0.467 | 1.16 | 0.95 | 0.918 | 0.526 | 0.664
HCC-15 | 0.615 | 0.689 | 0.669 | – | 0.541 | 0.394 | 0.294 | 0.398 | 0.167 | 0.143 | 1.16 | 1.06 | 1.13 | 1.12 | 1.02 | 0.923 | 0.968 | 0.809 | 0.519 | 0.886
PC-3 [JPC-3] | 0.769 | 0.754 | 0.698 | 0.814 | 0.71 | 0.723 | 0.848 | 0.974 | 1 | 0.625 | – | 0.782 | 0.82 | 0.712 | 0.411 | 1.09 | 0.979 | – | 0.884 | 0.97
A-427 | 0.466 | 0.573 | 0.482 | 0.52 | 0.337 | 0.193 | 0.225 | 0.203 | 0.185 | 0.186 | – | 0.81 | 0.675 | 0.63 | 0.478 | 1.04 | 1.07 | 0.991 | 0.759 | 0.968
NCI-H1755 | 0.677 | 0.787 | 0.645 | – | 0.531 | 0.627 | 0.571 | 0.589 | 0.584 | 0.436 | 0.542 | 0.663 | 0.382 | 0.519 | 0.512 | 0.956 | 0.88 | 0.851 | 0.445 | 1.03
NCI-H2347 | 0.447 | 0.382 | 0.421 | 0.578 | 0.454 | 0.497 | 0.438 | 0.545 | 0.516 | 0.386 | 0.686 | – | 0.732 | – | 0.704 | 1.2 | 1.04 | 0.965 | 0.978 | 0.953
NCI-H2170 | 0.676 | 0.685 | 0.739 | – | 0.613 | 0.681 | 0.671 | 0.731 | 0.639 | 0.456 | 0.784 | 0.937 | 0.92 | 0.918 | 0.759 | 0.865 | 0.849 | 0.768 | 0.344 | 0.803
LXF-289 | 0.758 | 0.915 | 0.852 | 0.936 | 0.579 | 0.194 | 0.216 | 0.171 | 0.142 | 0.166 | 1.09 | 1.16 | 1.16 | 1.12 | 0.995 | 1.17 | 1.04 | 0.89 | 0.516 | 1.01
NCI-H1666 | 0.816 | 0.876 | 0.893 | 0.907 | 0.679 | 0.579 | 0.641 | 0.637 | 0.601 | 0.464 | 0.836 | 0.87 | – | 1.01 | 0.694 | 1.08 | 1.15 | 0.403 | 0.212 | 1.07
HCC-78 | 0.367 | 0.334 | 0.391 | 0.35 | 0.286 | 0.407 | 0.465 | 0.397 | 0.434 | 0.296 | 0.556 | 0.582 | 0.728 | 1.13 | 0.499 | 0.439 | 0.319 | 0.32 | 0.218 | 0.315
NCI-H2126 | 0.603 | 0.696 | 0.739 | 0.855 | 0.624 | 0.831 | 0.843 | 0.901 | 0.735 | 0.533 | 1.06 | 1.12 | 0.962 | 1.05 | 1.06 | 0.779 | 0.749 | 0.67 | 0.739 | 0.716
NCI-H1993 | 0.516 | 0.454 | 0.636 | 0.548 | 0.552 | 0.583 | 0.628 | 0.56 | 0.557 | 0.546 | 0.772 | 0.716 | 0.959 | 0.844 | 0.818 | 0.714 | 0.72 | 0.675 | 0.659 | 0.666
LOU-NH91 | 0.705 | 0.735 | 0.672 | 0.827 | – | 0.644 | 0.631 | 0.636 | 0.669 | 0.419 | 0.678 | 0.763 | 0.806 | 0.835 | 0.59 | 0.814 | 0.726 | 0.466 | 0.538 | –
NCI-H1437 | 0.862 | 0.876 | 0.902 | 0.852 | 0.595 | 0.408 | 0.415 | 0.401 | 0.329 | 0.221 | 1.11 | 1.13 | 1.15 | 1.09 | 0.886 | 1.13 | 0.84 | 0.845 | 0.153 | 0.865
H3255 | 0.599 | 0.597 | 0.611 | 0.603 | 0.469 | 0.599 | 0.646 | 0.651 | 0.25 | 0.469 | 0.979 | 0.868 | 0.894 | 0.925 | 0.554 | 0.861 | 0.756 | 0.473 | 0.561 | 0.641
NCI-H322M | 0.506 | – | 0.571 | 0.504 | 0.37 | 0.427 | 0.496 | 0.462 | 0.451 | 0.436 | 0.566 | 0.606 | 0.568 | 0.451 | 0.38 | 0.778 | 0.771 | 0.722 | 0.809 | 0.895
NCI-H1915 | 0.622 | 0.648 | 0.651 | 0.672 | 0.507 | 0.434 | 0.404 | 0.494 | 0.389 | 0.296 | 0.735 | 0.71 | 0.683 | – | 0.725 | 1.09 | 0.982 | 1.07 | 0.695 | 0.808
RERF-LC-KJ | 0.684 | 0.504 | 0.645 | 0.577 | 0.461 | 0.552 | 0.465 | 0.473 | 0.409 | 0.295 | 1.01 | 0.98 | 0.936 | 1.3 | 0.886 | 0.924 | 0.728 | 0.677 | 0.659 | –
201T | 0.88 | 0.824 | 0.398 | 0.367 | 0.493 | 0.964 | 0.975 | – | 0.808 | 0.771 | 0.566 | 0.651 | 0.669 | 0.698 | 0.575 | 1.03 | 1.09 | 1.03 | 0.97 | 0.997
HCC-827 | 0.831 | 0.789 | 0.714 | 0.939 | 1 | – | 0.437 | 0.642 | 0.387 | 0.365 | 0.23 | 0.185 | 0.231 | 0.263 | 0.206 | 1.07 | 0.897 | – | 0.85 | 0.957
NCI-H838 | 0.386 | 0.463 | 0.343 | 0.346 | 0.339 | 0.291 | 0.305 | 0.267 | 0.25 | 0.165 | 0.972 | 0.987 | 0.915 | 0.856 | 0.868 | 1.02 | 1.06 | 0.907 | 0.524 | –
